Target: T1, hTLR7 (Homo sapiens, UniProt Q9NYK1)
T1 sequence (Q9NYK1 27-1049): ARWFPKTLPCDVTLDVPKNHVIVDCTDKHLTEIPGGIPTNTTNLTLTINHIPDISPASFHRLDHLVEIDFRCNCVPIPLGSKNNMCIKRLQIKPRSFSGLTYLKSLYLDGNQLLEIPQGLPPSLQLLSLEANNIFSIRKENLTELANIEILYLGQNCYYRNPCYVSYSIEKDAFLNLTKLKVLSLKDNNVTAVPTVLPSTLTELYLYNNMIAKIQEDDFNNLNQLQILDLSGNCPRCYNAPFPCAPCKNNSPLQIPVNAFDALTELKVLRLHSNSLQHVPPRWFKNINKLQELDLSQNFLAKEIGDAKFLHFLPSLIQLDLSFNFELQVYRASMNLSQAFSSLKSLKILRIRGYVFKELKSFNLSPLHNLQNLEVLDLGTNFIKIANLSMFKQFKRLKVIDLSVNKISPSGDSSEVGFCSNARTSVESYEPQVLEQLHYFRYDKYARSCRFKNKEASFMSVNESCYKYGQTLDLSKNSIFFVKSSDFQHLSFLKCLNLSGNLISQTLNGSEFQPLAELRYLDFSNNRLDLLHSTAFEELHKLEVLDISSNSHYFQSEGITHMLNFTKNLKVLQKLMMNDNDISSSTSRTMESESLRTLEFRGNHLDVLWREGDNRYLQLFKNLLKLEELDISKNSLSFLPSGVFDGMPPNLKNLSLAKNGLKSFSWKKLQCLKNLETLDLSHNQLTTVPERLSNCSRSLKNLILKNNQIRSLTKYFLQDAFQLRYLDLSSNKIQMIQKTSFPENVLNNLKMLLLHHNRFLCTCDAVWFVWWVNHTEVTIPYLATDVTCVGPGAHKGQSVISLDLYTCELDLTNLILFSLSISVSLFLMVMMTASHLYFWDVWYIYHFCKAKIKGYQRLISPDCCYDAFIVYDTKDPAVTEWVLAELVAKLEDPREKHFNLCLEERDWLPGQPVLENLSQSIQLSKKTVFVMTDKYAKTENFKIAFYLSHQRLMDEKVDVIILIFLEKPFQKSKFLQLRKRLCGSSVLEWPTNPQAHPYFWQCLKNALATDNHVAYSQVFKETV
Experiment: HEK293-Blue-hTLR-7 cells assay (SEAP reporter, R848 stimulation)
Assay type: cell-based
Details: HEK293-Blue-hTLR7 cells, R848, 20 hrs; 0.003 is the lowest tested concentration; read-out: HEK/hTLR7 IC50
Description: The following tests were carried out in order to determine the activity of the compounds of formula (I) or (Ia) in HEK293-Blue-hTLR-7/8/9 cells assay.
HEK293-Blue-hTLR-7 cells assay:
A stable HEK293-Blue-hTLR-7 cell line was purchased from InvivoGen (Cat.#: hkb-htlr7, San Diego, California, USA). These cells were originally designed for studying the stimulation of human TLR7 by monitoring the activation of NF-κB. A SEAP (secreted embryonic alkaline phosphatase) reporter gene was placed under the control of the IFN-β minimal promoter fused to five NF-κB and AP-1-binding sites. The SEAP was induced by activating NF-κB and AP-1 via stimulating HEK-Blue hTLR7 cells with TLR7 ligands. Therefore the reporter expression was declined by TLR7 antagonist under the stimulation of a ligand, such as R848 (Resiquimod), for incubation of 20 hrs. The cell culture supernatant SEAP reporter activity was determined using QUANTI-Blue™ kit (Cat.#: rep-qb1, Invivogen, San Diego, Ca, USA) at a wavelength of 640 nm, a detection medium that turns purple or blue in the presence of alkaline phosphatase.
HEK293-Blue-hTLR7 cells were incubated at a density of 250,000∼450,000 cells/mL in a volume of 170 µL in a 96-well plate in Dulbecco's Modified Eagle's medium (DMEM) containing 4.5 g/L glucose, 50 U/mL penicillin, […], […], 2 mM L-glutamine, 10% (v/v) heat-inactivated fetal bovine serum with addition of 20 µL test compound in a serial dilution in the presence of final DMSO at 1% and 10 µL of 20uM R848 in above DMEM, perform incubation under 37 °C in a CO2 incubator for 20 hrs. Then 20 µL of the supernatant from each well was incubated with 180 µL Quanti-blue substrate solution at 37 °C for 2 hrs and the absorbance was read at 620∼655 nm using a spectrophotometer. The signalling pathway that TLR7 activation leads to downstream NF-κB activation has been widely accepted, and therefore similar reporter assay was modified for evaluating TLR7 antagonist.

SMILES | IC50
C[C@@H]1CN(c2ccc(C#N)c3ncccc23)C[C@H](CN2Cc3cc(N4CCNCC4)cc(F)c3C2)O1 [Example 59, 5-[(2S,6R)-2-[(4-fluoro-6-piperazin-1-yl-isoindolin-2-yl)methyl]-6-methyl-morpholin-4-yl]quinoline-8-carbonitrile] | 18 nM
C[C@@H]1CN(c2ccc(C#N)c3nccnc23)C[C@H](CN2Cc3cnc(N4CCNCC4)cc3C2)O1 [Example 60, 8-[(2R,6S)-2-methyl-6-[(6-piperazin-1-yl-1,3-dihydropyrrolo[3,4-c]pyridin-2-yl)methyl]morpholin-4-yl]quinoxaline-5-carbonitrile] | 11 nM
C[C@@H]1CN(c2ccc(C#N)c3ncccc23)C[C@H](CN2Cc3cnc(N4CCNCC4)cc3C2)O1 [Example 61, 5-[(2R,6S)-2-methyl-6-[(6-piperazin-1-yl-1,3-dihydropyrrolo[3,4-c]pyridin-2-yl)methyl]morpholin-4-yl]quinoline-8-carbonitrile] | 23 nM
C[C@@H]1CN(c2ccc3c(c2)CN(C[C@H]2CN(c4ccc(C#N)c5ncccc45)C[C@@H](C)O2)C3)CCN1 [Example 62, 5-[(2R,6S)-2-methyl-6-[[5-[(3R)-3-methylpiperazin-1-yl]isoindolin-2-yl]methyl]morpholin-4-yl] quinoline-8-carbonitrile] | 26 nM
C[C@@H]1CN(c2ccc(C#N)c3ncccc23)C[C@H](CN2Cc3cnc(N4CCNCC4)nc3C2)O1 [Example 63, 5-[(2R,6S)-2-methyl-6-[(2-piperazin-1-yl-5,7-dihydropyrrolo[3,4-d]pyrimidin-6-yl)methyl]morpholin-4-yl]quinoline-8-carbonitrile] | 13 nM
C[C@@H]1CN(c2ccc(C#N)c3ncccc23)C[C@H](CN2Cc3ccc(N4CCN[C@@H](C)C4)cc3C2)O1 [Example 64, 5-[(2R,6S)-2-methyl-6-[[5-[(3S)-3-methylpiperazin-1-yl]isoindolin-2-yl]methyl]morpholin-4-yl]quinoline-8-carbonitrile] | 40 nM
C[C@@H]1CN(c2ccc3c(c2)CN(C[C@H]2CN(c4ccc(C#N)c5nccnc45)C[C@@H](C)O2)C3)CCN1 [Example 65, 8-[(2R,6S)-2-methyl-6-[[5-[(3R)-3-methylpiperazin-1-yl]isoindolin-2-yl]methyl]morpholin-4-yl] quinoxaline-5-carbonitrile] | 8 nM
C[C@@H]1CN(c2ccc(C#N)c3nccnc23)C[C@H](CN2Cc3ccc(N4CCN[C@@H](C)C4)cc3C2)O1 [Example 66, 8-[(2R,6S)-2-methyl-6-[[5-[(3S)-3-methylpiperazin-1-yl]isoindolin-2-yl]methyl]morpholin-4-yl]quinoxaline-5-carbonitrile] | 6 nM
COC(=O)C1CN(c2ccc3c(c2)CN(C[C@H]2CN(c4ccc(C#N)c5ncccc45)C[C@@H](C)O2)C3)CCN1 (stereo partly drawn) [Example 67, Methyl 4-[2-[[(2S,6R)-4-(8-cyano-5-quinolyl)-6-methyl-morpholin-2-yl]methyl]isoindolin-5-yl] piperazine-2-carboxylate] | 56 nM
C[C@@H]1CN(c2ccc(C#N)c3ncccc23)C[C@H](CN2Cc3cc(N4CCN(C)CC4)cc(F)c3C2)O1 [Example 69, 5-[(2S,6R)-2-[[4-fluoro-6-(4-methylpiperazin-1-yl)isoindolin-2-yl]methyl]-6-methyl-morpholin-4-yl]quinoline-8-carbonitrile] | 43 nM
C[C@@H]1CN(c2ccc(C#N)c3ncccc23)C[C@H](CN2CCc3cc(N4CCNCC4)ncc3C2)O1 [Example 70, 5-[(2R,6S)-2-methyl-6-[(6-piperazin-1-yl-3,4-dihydro-1H-2,7-naphthyridin-2-yl)methyl]morpholin-4-yl]quinoline-8-carbonitrile] | 14 nM
C[C@@H]1CN(c2ccc3c(c2)CN(C[C@H]2CN(c4ccc(C#N)c5ncccc45)C[C@@H](C)O2)C3)C[C@H](C)N1 [Example 71, 5-[(2R,6S)-2-methyl-6-[[5-[(3R,5S)-3,5-dimethylpiperazin-1-yl]isoindolin-2-yl]methyl]morpholin-4-yl]quinoline-8-carbonitrile] | 108 nM
C[C@@H]1CN(c2ccc(C#N)c3ncccc23)C[C@H](CN2Cc3ccc(N4CC5COCC(C4)N5)cc3C2)O1 [Example 72, 5-[(2R,6S)-2-methyl-6-[[5-(3-oxa-7,9-diazabicyclo[3.3.1]nonan-7-yl)isoindolin-2-yl]methyl]morpholin-4-yl]quinoline-8-carbonitrile] | 45 nM
C[C@@H]1CN(c2ccc(C#N)c3ncccc23)C[C@H](CN2Cc3ccc(N4CCNCC4CO)cc3C2)O1 (stereo partly drawn) [Example 73, 5-[(2S,6R)-2-[[5-[2-(hydroxymethyl)piperazin-1-yl]isoindolin-2-yl]methyl]-6-methyl-morpholin-4-yl]quinoline-8-carbonitrile] | 48 nM
C[C@@H]1CN(c2ccc(C#N)c3ncccc23)C[C@H](CN2Cc3ccc(CN4CCCCC4)cc3C2)O1 [Example 74, 5-[(2R,6S)-2-methyl-6-[[5-(1-piperidylmethyl)isoindolin-2-yl]methyl]morpholin-4-yl]quinoline-8-carbonitrile] | 59 nM
C[C@@H]1CN(c2ccc(C#N)c3ncccc23)C[C@H](CN2Cc3ccc(N4CCNCC4)cc3C(O)C2)O1 (stereo partly drawn) [Example 75, 5-[(2S,6R)-2-[(4-hydroxy-6-piperazin-1-yl-3,4-dihydro-1H-isoquinolin-2-yl)methyl]-6-methyl-morpholin-4-yl]quinoline-8-carbonitrile] | 42 nM
C[C@@H]1CN(c2ccc(C#N)c3ncccc23)C[C@H](CN2Cc3ccc(N4CCNCC4C(F)F)cc3C2)O1 (stereo partly drawn) [Example 76, 5-[(2S,6R)-2-[[5-[2-(difluoromethyl)piperazin-1-yl]isoindolin-2-yl]methyl]-6-methyl-morpholin-4-yl]quinoline-8-carbonitrile] | 9 nM
C[C@@H]1CN(c2ccc(C#N)c3ncccc23)C[C@H](CN2Cc3ccc(N4CC(N)C4)cc3C2)O1 [Example 77, 5-[(2S,6R)-2-[[5-(3-aminoazetidin-1-yl)isoindolin-2-yl]methyl]-6-methyl-morpholin-4-yl]quinoline-8-carbonitrile] | 32 nM
CC1CNCCN1c1ccc2c(c1)CN(C[C@H]1CN(c3ccc(C#N)c4ncccc34)C[C@@H](C)O1)C2 (stereo partly drawn) [Example 78, 5-[(2R,6S)-2-methyl-6-[[5-(2-methylpiperazin-1-yl)isoindolin-2-yl]methyl]morpholin-4-yl] quinoline-8-carbonitrile] | 11 nM
C[C@@H]1CN(c2ccc(C#N)c3ncccc23)C[C@H](CN2CCc3nc(N4CCNCC4)ccc3C2)O1 [Example 79, 5-[(2R,6S)-2-methyl-6-[(2-piperazin-1-yl-7,8-dihydro-5H-1,6-naphthyridin-6-yl)methyl]morpholin-4-yl]quinoline-8-carbonitrile] | 15 nM
C[C@@H]1CN(c2ccc(C#N)c3ncccc23)C[C@H](CN2Cc3ccc(N4CCNCC4)nc3C2)O1 [Example 80, 5-[(2R,6S)-2-methyl-6-[(2-piperazin-1-yl-5,7-dihydropyrrolo[3,4-b]pyridin-6-yl)methyl]morpholin-4-yl]quinoline-8-carbonitrile] | 7 nM
